The subject of this assay is L1210 leukemia ip in BDF1 mice, survival T/C. The assay is described as follows: NCI In Vivo Anticancer Drug Screen. Data for tumor model L1210 Leukemia (intraperitoneal) in B6D2F1 (BDF1) mice. To be noted: endpoint: mean survival time, higher = longer survival. The gist of the method:
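Transplantable tumor model; survival measured in treated vs vehicle control mice. Value = treated/control.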

Setting [1] is: dose: 100.0 mg/kg/injection, schedule: Q04DX002 (ip), vehicle: Klucel (hydroxypropylcellulose) (HPC).
The mark [2] stands for this setting: dose: 100.0 mg/kg/injection, schedule: Q01DX001 (ip), vehicle: other.
The mark [3] stands for this setting: dose: 200.0 mg/kg/injection, schedule: Q01DX001 (ip), vehicle: other.
Where [4] appears, read: dose: 400.0 mg/kg/injection, schedule: Q01DX001 (ip), vehicle: other.
The mark [5] stands for this setting: dose: 50.0 mg/kg/injection, schedule: Q04DX003 (ip), vehicle: Klucel (hydroxypropylcellulose) (HPC).
Where [6] appears, read: dose: 100.0 mg/kg/injection, schedule: Q04DX003 (ip), vehicle: Klucel (hydroxypropylcellulose) (HPC).
Setting [7] is: dose: 200.0 mg/kg/injection, schedule: Q04DX003 (ip), vehicle: Klucel (hydroxypropylcellulose) (HPC).
The mark [8] stands for this setting: dose: 100.0 mg/kg/injection, schedule: Q01DX001 (ip), vehicle: saline.
[9] abbreviates: dose: 200.0 mg/kg/injection, schedule: Q01DX001 (ip), vehicle: saline.
Where [10] appears, read: dose: 100.0 mg/kg/injection, schedule: Q04DX003 (ip), vehicle: saline with Tween-80.
Where [11] appears, read: dose: 200.0 mg/kg/injection, schedule: Q04DX003 (ip), vehicle: saline with Tween-80.
Setting [12] is: dose: 400.0 mg/kg/injection, schedule: Q04DX003 (ip), vehicle: saline with Tween-80.

“And” between values parts separate entries of the source, which are not always exact repeats. Identical values can stand only once. Inconclusive results and toxic doses are left out.

Take `Cc1ccc(C)c(NC(=O)NC(C)(C)C)c1`: the T/C under setting [1] is 105 % of control; the T/C (dose: 200.0 mg/kg/injection, schedule: Q04DX002 (ip), vehicle: Klucel (hydroxypropylcellulose) (HPC)) was 102 % of control; the T/C (dose: 400.0 mg/kg/injection, schedule: Q04DX002 (ip), vehicle: Klucel (hydroxypropylcellulose) (HPC)) is 117 % of control.

As for `CCn1c(/C=N/NC(N)=S)cc2ccccc21`, the T/C (dose: 50.0 mg/kg/injection, schedule: Q01DX001 (ip), vehicle: other) is 104 % of control; the T/C under setting [2] was 109 % of control; the T/C under setting [3] is 104 % of control; the T/C under setting [4] is 104 % of control.

In the case of `CCC(=O)c1ccc(N2CCOCC2)cc1`, the T/C under setting [5] was 97 % of control; the T/C under setting [2] was 107 % of control; the T/C under setting [6] is 101 % of control; the T/C under setting [3] was 107 % of control; the T/C under setting [7] was 108 % of control; the T/C under setting [4] was 107 % of control.

Take `CN(C)CCC(=O)c1cccc([N+](=O)[O-])c1`: the T/C (dose: 75.0 mg/kg/injection, schedule: Q01DX001 (ip), vehicle: other) is 102 % of control.

Take `COc1cc2c(c(O)c1OC)c(=O)c1ccccc1n2C`: the T/C reads like this: (dose: 60.0 mg/kg/injection, schedule: Q01DX Z (ip), vehicle: carboxymethylcellulose (CMC)) 103 % of control; (dose: 120.0 mg/kg/injection, schedule: Q01DX Z (ip), vehicle: carboxymethylcellulose (CMC)) 102 % of control; (dose: 240.0 mg/kg/injection, schedule: Q01DX Z (ip), vehicle: carboxymethylcellulose (CMC)) 97 % of control.

`COc1ccc(Cl)cc1/C=C/C=O`: the T/C under setting [8] was 91 % of control; the T/C under setting [9] is 92 % of control; the T/C (dose: 400.0 mg/kg/injection, schedule: Q01DX001 (ip), vehicle: saline) is 102 % of control.

In the case of `CCOCCN=Cc1c[nH]c2ccccc12`, the T/C under setting [6] is 98 % of control; the T/C under setting [7] is 95 % of control; the T/C (dose: 400.0 mg/kg/injection, schedule: Q04DX003 (ip), vehicle: Klucel (hydroxypropylcellulose) (HPC)) is 98 % of control.

In the case of `CCNC(=O)C1C2CC3OC(=O)C1C3C2` (stereo not given), the T/C runs as follows: under setting [10], 90 % of control; under setting [11], 95 % of control; under setting [12], 95 % of control.

`CCCCCC(=N\N=C(N)N)/C(C)=N/N=C(N)N`: the T/C is 106 % of control (dose: 7.5 mg/kg/injection, schedule: Q01DX Z (ip), vehicle: saline); 111 % of control (dose: 15.0 mg/kg/injection, schedule: Q01DX Z (ip), vehicle: saline); 93 % of control (dose: 30.0 mg/kg/injection, schedule: Q01DX Z (ip), vehicle: saline).

Consider `CCOC(=O)C1OC12CCCCC2` (stereo not given), for which the T/C by setting is: (dose: 100.0 mg/kg/injection, schedule: Q01DX009 (ip), vehicle: Klucel (hydroxypropylcellulose) (HPC)) 100 % of control; (dose: 100.0 mg/kg/injection, schedule: Q04DX003 (ip), vehicle: saline) 92 % of control; (dose: 200.0 mg/kg/injection, schedule: Q01DX009 (ip), vehicle: Klucel (hydroxypropylcellulose) (HPC)) 92 % of control; (dose: 200.0 mg/kg/injection, schedule: Q04DX003 (ip), vehicle: saline) 96 % of control; (dose: 400.0 mg/kg/injection, schedule: Q01DX009 (ip), vehicle: Klucel (hydroxypropylcellulose) (HPC)) 100 % of control; (dose: 400.0 mg/kg/injection, schedule: Q04DX003 (ip), vehicle: saline) 89 % of control.

As to `CC(C)C(=O)NC1CCCCC1`, the T/C reads like this: (dose: 25.0 mg/kg/injection, schedule: Q04DX002 (ip), vehicle: Klucel (hydroxypropylcellulose) (HPC)) 111 % of control; (dose: 50.0 mg/kg/injection, schedule: Q04DX002 (ip), vehicle: Klucel (hydroxypropylcellulose) (HPC)) 111 % of control; under setting [1], 101 % of control.

For the molecule `O=[N+]([O-])c1ccc(N/N=C/c2ccc(N(CCO)CCO)cc2)c([N+](=O)[O-])c1`, the T/C is, setting by setting: (dose: 25.0 mg/kg/injection, schedule: Q01DX001 (ip), vehicle: saline with Tween-80) 88 % of control; (dose: 50.0 mg/kg/injection, schedule: Q01DX001 (ip), vehicle: saline with Tween-80) 90 % of control; (dose: 100.0 mg/kg/injection, schedule: Q01DX001 (ip), vehicle: saline with Tween-80) 98 % of control.

As for `O=C1C=C(Nc2ccc(Cl)cc2)c2ccccc2C1=O`, the T/C under setting [2] was 98 % of control, the T/C under setting [3] is 90 % of control and the T/C under setting [4] is 95 % of control.

Turning to `OC(C[n+]1ccsc1)c1ccccc1` (stereo not given), the T/C runs as follows: (dose: 75.0 mg/kg/injection, schedule: Q01DX001 (ip), vehicle: saline) 96 % of control; (dose: 150.0 mg/kg/injection, schedule: Q01DX001 (ip), vehicle: saline) 100 % of control.

Regarding `[O-][n+]1onc2ncccc21`, the T/C was 108 % of control (dose: 25.0 mg/kg/injection, schedule: Q04DX003 (ip), vehicle: Klucel (hydroxypropylcellulose) (HPC)); 94 % of control under setting [5]; 100 % of control and 102 % of control under setting [6].

For `O=C1N/C(=N\OCCc2ccccc2)CC(NOCCc2ccccc2)N1` (stereo not given), the T/C is 94 % of control under setting [10], 94 % of control under setting [11] and 97 % of control under setting [12].

`COc1ccc(C2C(=O)c3ccc(OC)c(OC)c3C2=O)cc1OC` (stereo not given): the T/C is 94 % of control under setting [8] and 89 % of control under setting [9].

As for `CN(C)/N=C(\CBr)c1ccc([N+](=O)[O-])cc1`, the T/C was 96 % of control (dose: 50.0 mg/kg/injection, schedule: Q01DX009 (ip), vehicle: saline with Tween-80); 96 % of control (dose: 100.0 mg/kg/injection, schedule: Q01DX009 (ip), vehicle: saline with Tween-80); 89 % of control (dose: 200.0 mg/kg/injection, schedule: Q01DX009 (ip), vehicle: saline with Tween-80).

Take `CC[C@@]1(O)C(=O)OCc2c1cc1n(c2=O)Cc2cc3cc(O)ccc3nc2-1`: the T/C (dose: 0.15 mg/kg/injection, schedule: Q01DX015 (ip), vehicle: saline) is 151 % of control; the T/C (dose: 0.22 mg/kg/injection, schedule: Q01DX015 (ip), vehicle: saline) was 157 % of control; the T/C (dose: 0.34 mg/kg/injection, schedule: Q01DX015 (ip), vehicle: saline) was 165 % of control; the T/C (dose: 0.51 mg/kg/injection, schedule: Q01DX015 (ip), vehicle: saline) is 233 % of control; the T/C (dose: 0.77 mg/kg/injection, schedule: Q01DX015 (ip), vehicle: saline) was 157 % of control; the T/C (dose: 1.0 mg/kg/injection, schedule: Q01DX009 (ip), vehicle: saline) was 185 % of control. Also, the T/C runs as follows: (dose: 1.16 mg/kg/injection, schedule: Q01DX015 (ip), vehicle: saline) 161 % of control; (dose: 1.75 mg/kg/injection, schedule: Q01DX015 (ip), vehicle: saline) 177 % of control; (dose: 2.0 mg/kg/injection, schedule: Q01DX001 (ip), vehicle: saline) 111 % of control; (dose: 2.0 mg/kg/injection, schedule: Q01DX009 (ip), vehicle: saline) 229 % of control; (dose: 2.0 mg/kg/injection, schedule: Q01DX009 (oral), vehicle: saline) 105 % of control and 108 % of control; (dose: 3.0 mg/kg/injection, schedule: Q01DX009 (oral), vehicle: saline) 114 % of control and 115 % of control. The T/C is, setting by setting: (dose: 4.0 mg/kg/injection, schedule: Q01DX001 (ip), vehicle: saline) 164 % of control; (dose: 7.0 mg/kg/injection, schedule: Q01DX009 (oral), vehicle: saline) 101 % of control and 120 % of control; (dose: 8.0 mg/kg/injection, schedule: Q01DX001 (ip), vehicle: saline) 242 % of control; (dose: 10.0 mg/kg/injection, schedule: Q01DX009 (oral), vehicle: saline) 121 % of control; (dose: 15.0 mg/kg/injection, schedule: Q01DX009 (oral), vehicle: saline) 115 % of control; (dose: 16.0 mg/kg/injection, schedule: Q01DX001 (ip), vehicle: saline) 88 % of control. Besides, the T/C reads like this: (dose: 12.0 micrograms/kg/injection, schedule: Q01DX015 (ip), vehicle: saline) 113 % of control; (dose: 19.0 micrograms/kg/injection, schedule: Q01DX015 (ip), vehicle: saline) 111 % of control; (dose: 29.0 micrograms/kg/injection, schedule: Q01DX015 (ip), vehicle: saline) 118 % of control; (dose: 44.0 micrograms/kg/injection, schedule: Q01DX015 (ip), vehicle: saline) 120 % of control; (dose: 100.0 micrograms/kg/injection, schedule: Q01DX015 (ip), vehicle: saline) 150 % of control.
